According to the NIST ThermoML archive (doi:10.1007/s10765-010-0766-0):

Conditions: Liquid, Pycnometric method

FC(F)C(F)(F)OCC(F)(F)F [2,2,2-trifluoroethyl 1,1,2,2-tetrafluoroethyl ether]
Conditions | mass density [kg/m3]
279.15 K, 5663 kPa | 1535.2
280.15 K, 6663 kPa | 1534.9
280.15 K, 6673 kPa | 1534.9
281.15 K, 7673 kPa | 1534.6
281.15 K, 7685 kPa | 1534.7
282.15 K, 8685 kPa | 1534.4
282.15 K, 8696 kPa | 1534.5
283.15 K, 9695 kPa | 1534.2
283.15 K, 9705 kPa | 1534.3
284.15 K, 10704 kPa | 1534
284.15 K, 10712 kPa | 1534
285.15 K, 11710 kPa | 1533.8
285.15 K, 11717 kPa | 1533.8
286.15 K, 12714 kPa | 1533.6
286.15 K, 12720 kPa | 1533.6
287.15 K, 13718 kPa | 1533.4
287.15 K, 13722 kPa | 1533.4
288.15 K, 14719 kPa | 1533.2
288.15 K, 14722 kPa | 1533.2
289.15 K, 15719 kPa | 1533
289.15 K, 15720 kPa | 1533
290.15 K, 16716 kPa | 1532.8
290.15 K, 16717 kPa | 1532.8
291.15 K, 17711 kPa | 1532.6
291.15 K, 17712 kPa | 1532.6
292.15 K, 18703 kPa | 1532.5
292.15 K, 18704 kPa | 1532.4
293.15 K, 19694 kPa | 1532.3
294.15 K, 20683 kPa | 1532.1
295.15 K, 21669 kPa | 1531.9
296.15 K, 22653 kPa | 1531.8
296.15 K, 22654 kPa | 1531.8
297.15 K, 23636 kPa | 1531.6
298.15 K, 24616 kPa | 1531.4
298.15 K, 24617 kPa | 1531.4
299.15 K, 25595 kPa | 1531.3
299.15 K, 25596 kPa | 1531.3
300.15 K, 26572 kPa | 1531.1
300.15 K, 26573 kPa | 1531.1
301.15 K, 6294 kPa | 1484.4
301.15 K, 27548 kPa | 1531
302.15 K, 7147 kPa | 1484.2
302.15 K, 28521 kPa | 1530.9
302.15 K, 28522 kPa | 1530.9
303.15 K, 8010 kPa | 1484
303.15 K, 8015 kPa | 1484
303.15 K, 29493 kPa | 1530.7
304.15 K, 8873 kPa | 1483.8
304.15 K, 8874 kPa | 1483.8
305.15 K, 9734 kPa | 1483.6
306.15 K, 10592 kPa | 1483.4
306.15 K, 10594 kPa | 1483.4
307.15 K, 11449 kPa | 1483.2
307.15 K, 11452 kPa | 1483.2
308.15 K, 12303 kPa | 1483
308.15 K, 12308 kPa | 1483.1
309.15 K, 13157 kPa | 1482.8
309.15 K, 13163 kPa | 1482.9
310.15 K, 14009 kPa | 1482.7
310.15 K, 14016 kPa | 1482.7
311.15 K, 14859 kPa | 1482.5
311.15 K, 14867 kPa | 1482.5
312.15 K, 15708 kPa | 1482.3
312.15 K, 15718 kPa | 1482.4
313.15 K, 16557 kPa | 1482.1
313.15 K, 16566 kPa | 1482.2
314.15 K, 17405 kPa | 1482
314.15 K, 17414 kPa | 1482
315.15 K, 18252 kPa | 1481.8
315.15 K, 18260 kPa | 1481.8
316.15 K, 19097 kPa | 1481.7
316.15 K, 19105 kPa | 1481.7
317.15 K, 19942 kPa | 1481.5
317.15 K, 19949 kPa | 1481.5
318.15 K, 20785 kPa | 1481.4
318.15 K, 20791 kPa | 1481.4
319.15 K, 21626 kPa | 1481.2
319.15 K, 21632 kPa | 1481.2
320.15 K, 22467 kPa | 1481.1
320.15 K, 22471 kPa | 1481.1
321.15 K, 23306 kPa | 1480.9
321.15 K, 23311 kPa | 1480.9
322.15 K, 24144 kPa | 1480.8
322.15 K, 24148 kPa | 1480.8
323.15 K, 24980 kPa | 1480.6
323.15 K, 24983 kPa | 1480.6
324.15 K, 25816 kPa | 1480.5
324.15 K, 25819 kPa | 1480.5
325.15 K, 26650 kPa | 1480.4
325.15 K, 26653 kPa | 1480.4
326.15 K, 27482 kPa | 1480.2
326.15 K, 27484 kPa | 1480.2
327.15 K, 28313 kPa | 1480.1
327.15 K, 28315 kPa | 1480.1
328.15 K, 29144 kPa | 1480
328.15 K, 29145 kPa | 1480
329.15 K, 7678 kPa | 1420.3
329.15 K, 7689 kPa | 1420.3
329.15 K, 29973 kPa | 1479.9
329.15 K, 29975 kPa | 1479.9
330.15 K, 8385 kPa | 1420.1
330.15 K, 8394 kPa | 1420.1
331.15 K, 9091 kPa | 1420
331.15 K, 9099 kPa | 1419.9
332.15 K, 9796 kPa | 1419.8
332.15 K, 9803 kPa | 1419.8
333.15 K, 10500 kPa | 1419.6
333.15 K, 10506 kPa | 1419.6
334.15 K, 11204 kPa | 1419.5
334.15 K, 11209 kPa | 1419.5
335.15 K, 11908 kPa | 1419.3
335.15 K, 11912 kPa | 1419.3
336.15 K, 12610 kPa | 1419.2
336.15 K, 12614 kPa | 1419.1
337.15 K, 13313 kPa | 1419
337.15 K, 13315 kPa | 1419
338.15 K, 14014 kPa | 1418.8
338.15 K, 14016 kPa | 1418.8
339.15 K, 14714 kPa | 1418.7
339.15 K, 14716 kPa | 1418.7
340.15 K, 15413 kPa | 1418.5
340.15 K, 15416 kPa | 1418.5
341.15 K, 16111 kPa | 1418.4
341.15 K, 16114 kPa | 1418.4
